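Protocol summary: plate cells (96-well), add compound at 5 concentrations, incubate 48 h, interpolate endpoints linearly. Here, GI50 denotes the concentration required for 50% inhibition of growth.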 Activity calls are given as the source filed them. No stated cut-off is given here; in the data, active = GI50 up to about 1.1 µM and inactive = higher.
Key:
Assay in all cases: DTP human tumour cell line panel, 48 h
[1] = test system: OVCAR-4
[2] = test system: CCRF-CEM
[3] = test system: SW-620
[4] = test system: TK-10
[5] = test system: CAKI-1
[6] = test system: LOX IMVI
[7] = test system: HOP-62
[8] = test system: SK-MEL-5
[9] = test system: RPMI-8226
[10] = test system: HOP-92
[11] = test system: SF-539
[12] = test system: SN12C
[13] = test system: K562
[14] = test system: RXF 393
[15] = test system: ACHN
[16] = test system: SF-268
[17] = test system: NCI-H23
[18] = test system: A498

Measured: GI50

COc1ccc(OC)c(-c2cc(O)c3cc4c(cc3n2)OCO4)c1
inactive: [1] 35.6 µM | [2] 4.36 µM | [3] 3.83 µM | [4] 11 µM | [5] 4.12 µM | [6] 6.07 µM | [7] 13.9 µM | [8] 2.98 µM | [9] 4.18 µM | [10] 3.54 µM | [11] 5.7 µM | [12] 6.79 µM | [13] 4.11 µM | [14] 2.99 µM | [15] 6.58 µM | [16] 7.74 µM | [17] 3.44 µM

Cc1cnc2ccc(C)c([N+](=O)[O-])c2c1NCCCN(C)C
inactive: [1] > 100 µM | [2] > 100 µM | [3] > 100 µM | [4] > 100 µM | [5] > 100 µM | [6] > 100 µM | [7] > 100 µM | [9] > 100 µM | [11] > 100 µM | [12] > 100 µM | [13] > 100 µM | [15] > 100 µM | [16] > 100 µM | [17] > 100 µM

COc1cc(C2=NN(C)C(c3ccc([N+](=O)[O-])o3)C2)cc(OC)c1OC (stereo unspecified)
inactive: [1] 91.4 µM | [2] 22.2 µM | [3] 11 µM | [4] > 100 µM | [5] > 100 µM | [6] 69 µM | [18] > 100 µM | [7] > 100 µM | [8] > 100 µM | [9] 1.78 µM | [10] 45.5 µM | [11] 49.7 µM | [12] 83.8 µM | [13] 52 µM | [15] > 100 µM | [16] > 100 µM | [17] > 100 µM

CC1=C(C(=O)Nc2ccc(C)cc2)C(c2cccc([N+](=O)[O-])c2)C(C(=O)Nc2ccc(C)cc2)=C(C)N1
inactive: [1] 12.2 µM | [2] 7.89 µM | [3] 35.2 µM | [4] 31.6 µM | [5] 27.9 µM | [6] 16.2 µM | [18] 16.4 µM | [7] 29.5 µM | [8] 20.2 µM | [11] 19 µM | [12] 20.9 µM | [13] 16.9 µM | [14] 22.8 µM | [15] 18.8 µM | [16] 16.1 µM | [17] 25.2 µM

Cc1cc(N(CCC#N)CCC#N)ccc1/N=N/c1ccccc1[N+](=O)[O-]
inactive: [1] > 100 µM | [2] > 100 µM | [3] > 100 µM | [4] > 100 µM | [5] > 100 µM | [6] > 100 µM | [18] > 100 µM | [7] 43.6 µM | [8] > 100 µM | [11] > 100 µM | [12] > 100 µM | [13] > 100 µM | [14] > 100 µM | [15] > 100 µM | [16] > 100 µM | [17] > 100 µM

CCc1cc(Cc2cc(CC)c(NC(=O)C(=O)Cc3ccccn3)c(CC)c2Cl)c(Cl)c(CC)c1NC(=O)C(=O)Cc1ccccn1
inactive: [1] > 100 µM | [2] > 100 µM | [3] 15.7 µM | [4] > 100 µM | [5] > 100 µM | [6] 41.8 µM | [18] > 100 µM | [7] > 100 µM | [8] > 100 µM | [9] > 100 µM | [10] > 100 µM | [11] > 100 µM | [12] > 100 µM | [13] > 100 µM | [15] > 100 µM | [16] > 100 µM | [17] > 100 µM

Cc1cc(C)c(C(=O)O)c(N)c1O
inactive: [1] > 100 µM | [2] > 100 µM | [3] > 100 µM | [4] > 100 µM | [5] > 100 µM | [6] > 100 µM | [18] > 100 µM | [7] > 100 µM | [8] > 100 µM | [9] > 100 µM | [12] > 100 µM | [13] > 100 µM | [14] > 100 µM | [15] > 100 µM | [16] > 100 µM | [17] > 100 µM

COc1cc(C(=O)N2CCc3c([nH]c4c([N+](=O)[O-])c(OC)ccc34)C2C)cc(OC)c1OC (stereo unspecified)
inactive: [1] > 100 µM | [2] > 100 µM | [3] > 100 µM | [4] > 100 µM | [5] > 100 µM | [6] > 100 µM | [18] > 100 µM | [7] > 100 µM | [9] > 100 µM | [11] 89.1 µM | [12] > 100 µM | [13] > 100 µM | [14] 26.7 µM | [15] > 100 µM | [16] 29.8 µM | [17] > 100 µM

COc1ccc(NC(=O)CC(=O)NN2C(=O)/C(=C/c3ccc(N(CCC#N)CCC#N)cc3C)N=C2/C=C\c2ccccc2)cc1
inactive: [1] > 100 µM | [2] > 100 µM | [3] > 100 µM | [4] > 100 µM | [5] > 100 µM | [6] > 100 µM | [18] > 100 µM | [7] > 100 µM | [8] > 100 µM | [9] > 100 µM | [10] > 100 µM | [11] > 100 µM | [12] > 100 µM | [13] > 100 µM | [15] > 100 µM | [16] > 100 µM | [17] > 100 µM

CC(C)C12Cc3c(ccc4ccccc34)OC1(C)Oc1ccc3ccccc3c1C2 (stereo unspecified)
inactive: [1] > 100 µM | [2] > 100 µM | [3] > 100 µM | [4] > 100 µM | [5] > 100 µM | [6] > 100 µM | [8] > 100 µM | [10] > 100 µM | [11] > 100 µM | [12] > 100 µM | [13] > 100 µM | [14] > 100 µM | [15] > 100 µM | [16] > 100 µM | [17] > 100 µM

O=S(=O)(C1=CC(S(=O)(=O)c2ccccc2)COC1)c1ccccc1 (stereo unspecified)
inactive: [1] > 100 µM | [2] > 100 µM | [3] > 100 µM | [4] > 100 µM | [5] > 100 µM | [6] > 100 µM | [7] > 100 µM | [9] > 100 µM | [11] > 100 µM | [12] > 100 µM | [13] > 100 µM | [14] > 100 µM | [15] > 100 µM | [16] > 100 µM | [17] > 100 µM

Cc1ccc(NC(=O)C2C(=O)N(c3ccc(C)c(C)c3)C(=O)/C2=N\NC(N)=S)cc1C (stereo unspecified)
inactive: [2] 47.4 µM | [3] > 100 µM | [4] > 100 µM | [5] > 100 µM | [6] > 100 µM | [9] > 100 µM | [10] > 100 µM | [11] > 100 µM | [12] 53.2 µM | [13] 60.7 µM | [15] > 100 µM | [16] 61.4 µM | [17] > 100 µM

COc1ccc2c3c(c(C(=O)O)oc13)C(CCC(=O)O)CC2 (stereo unspecified)
inactive: [1] > 100 µM | [3] > 100 µM | [4] > 100 µM | [5] > 100 µM | [6] > 100 µM | [18] > 100 µM | [7] > 100 µM | [8] > 100 µM | [10] > 100 µM | [11] > 100 µM | [12] > 100 µM | [14] > 100 µM | [15] > 100 µM | [17] > 100 µM

Cc1cccc(C)c1N1C(=O)C(=O)C(c2nc3ccccc3s2)/C(=N/c2cccc3c(=O)[nH][nH]c(=O)c23)C1=O (stereo unspecified)
inactive: [1] 79.3 µM | [2] 45.7 µM | [3] > 100 µM | [4] > 100 µM | [5] > 100 µM | [6] > 100 µM | [18] > 100 µM | [7] > 100 µM | [8] > 100 µM | [9] > 100 µM | [10] 92 µM | [11] > 100 µM | [12] > 100 µM | [13] 98.4 µM | [15] > 100 µM | [16] > 100 µM | [17] > 100 µM

COc1ccc(OC)c(NC(=O)CCC/C(CC(=O)c2ccc(O)c(OC)c2)=N\Nc2nnc(C)n2N)c1
inactive: [1] > 100 µM | [2] > 100 µM | [3] > 100 µM | [4] > 100 µM | [5] > 100 µM | [6] > 100 µM | [18] > 100 µM | [7] > 100 µM | [8] > 100 µM | [9] > 100 µM | [10] > 100 µM | [11] > 100 µM | [12] > 100 µM | [13] 32.4 µM | [15] > 100 µM | [16] > 100 µM | [17] > 100 µM

NCCNCc1c2ccccc2c(CNCCN)c2ccccc12
inactive: [1] > 10 µM | [2] 15.4 µM | [3] 11.1 µM | [4] 69 µM | [18] 22.3 µM | [7] 24.3 µM | [8] 26.4 µM | [10] 22.2 µM | [11] 12.2 µM | [12] 10.5 µM | [13] 7.59 µM | [14] 15.7 µM | [15] 34.8 µM | [16] 7.98 µM | [17] 13.1 µM

Cc1ccc(Nc2nc(C)c(C(/C=C/c3ccc(/C=C/C(=N/NC(=O)C[n+]4ccccc4)c4sc(Nc5ccc(C)cc5[N+](=O)[O-])nc4C)cc3)=N\NC(=O)C[n+]3ccccc3)s2)c([N+](=O)[O-])c1
inactive: [1] > 100 µM | [2] 32.3 µM | [3] > 100 µM | [4] 51.3 µM | [5] 48.6 µM | [6] 73.3 µM | [7] > 100 µM | [11] 89.1 µM | [12] 55.8 µM | [13] 81.3 µM | [14] > 100 µM | [15] 82.8 µM | [16] > 100 µM | [17] > 100 µM
